Results: patent US20200077655A1, “Use of an Acyclic Picolinamide Compound as a Fungicide for Control of Phytopathogenic Fungi in Orchard, Vineyard and Plantation Crops” (Dow AgroSciences LLC, priority 2017, published 2020)

Legend:
Assay type in all cases: in vivo
[1] = test system: Rhizopus stolonifer (RIZPST); assay: Field microplot assessment on Rhizopus rot on peaches; settings: field grown peaches, 17 days after first application
Botrytis (BOTRSP) = assay: Field assessment of jacket rot in almond; settings: MSO, almond nut infection
Experimental: A fungicidal treatment containing Compound I, applied in an SC formulation (MSO-built in) was sprayed on almond trees (Prunus spp.) at bloom, petal fall and ca. 3 and 5 weeks after petal fall at rates of 60, 120, 150, and 180 g ai/ha. The experimental plots were conducted with a natural infestation of Botrytis. The treatments were part of an experimental trial designed as a randomized complete block (RCB) with three replications and a plot of approximately 18×18 ft. Compound I was applied at water volume of 100 gal/acre, using an Airblast sprayer. Nut infection (number of visual diseased nuts per total nuts counted per tree on whole plot) was assessed and recorded 17 days after application 4 (17 DAA4). Relative percent control was calculated as percent of the untreated control using Abbotts.

[2] = test system: Cladosporium carpopilum (CLADSP); assay: Field assessment of almond scab; settings: almond nut incidence, 121 DAAA
Description: A fungicidal treatment containing Compound I, applied in an SC formulation (MSO built-in) and tank mixed with an adjuvant (Agnique BP-420, 50% w/w at 0.2% v/v or Adsee C80W 80%), was sprayed as a single application on almond trees (PRNDU, Winter variety) at rates of 60, 120, 150, and 180 g ai/ha. The experimental plots were run with natural infestation. The treatment was part of an experimental trial designed as a randomized complete block (RCB) with three replications and a plot of approximately 16×22 ft. Compound I was applied at water volume of 100 gal/acre, using a Mistblower sprayer (Orifice nozzle 2.3 setting).
Nut incidence (number of visual diseased nuts per 10 nuts per tree on whole plot) was assessed 121 days after application A (121 DAAA). Using Abbotts, % nut incidence of the treatments was used vs the nontreated to calculate % control.

[3] = test system: Botrytis cinerea (BOTRCI); assay: Strawberry shelf-life simulation, gray mold
Description: Strawberry shelf-life simulation (3 repetitions): Fungicidal treatments were applied to strawberry plants grown in a shade house to obtain healthy fruits. Once matured, the healthy fruits were harvested and transferred to a laboratory for a shelf-simulation study. In the laboratory, the fruits were bleach decontaminated to remove residual chemical residue. Compound I, applied in a 5% EC formulation and mixed with an adjuvant (Trycol, 50% w/w at 0.2% v/v), was sprayed on the healthy strawberries at rates of 50, 100 and 150 grams of active ingredient per hectare (g ai/ha) and allowed to dry completely. The fruits were then inoculated with gray mold and incubated on a laboratory bench at 20° C. Disease severity was recorded as a percentage of fruit infection assessments. Gray mold infection was assessed twice after the initial inoculation, 4 days after infection (4DAI) and 6DAI. Area under the disease progress curve (AUDPC) was calculated for each repetition using the sets of recorded severity data. Relative AUDPC (% control based on AUDPC) was calculated as percent of the nontreated control.

[4] = test system: Stigmina carpophila (STIGCA); assay: Field assessment of two trials for shot hole in almond (AUDPC); settings: almond leaf incidence
Description: A fungicidal treatment containing Compound I, applied in an SC formulation (MSO built-in) and tank mixed with an adjuvant (Agnique BP-420, 50% w/w at 0.2% v/v or Adsee C80W 80%), was sprayed on almond trees (PRNDU, Winters or Carmel varieties) at growth stage BBCH71 and 72 at rates of 60, 120, 150, and 180 g ai/ha in two trials. The experimental plots were run with natural infestation. The treatments were part of experimental trials designed as a randomized complete block (RCB) with three replications and a plot of approximately 14×20 ft, both trials. Compound I was applied at water volume of 100 gal/acre, using a Mistblower sprayer (Orifice nozzle 0.125 setting), both trials.
Percent Leaf incidence (calculated from the number of visual diseased leaves per 30 (Winters) or 50 (Carmel) leaves per tree on whole plot) was assessed three or four times during the trial. Area under the disease progress curve (AUDPC) was calculated for each plot using the sets of recorded leaf incidence data. Relative percent control was calculated from the AUDPC as percent of the untreated control using Abbotts.

[5] = test system: Monilinia fructicola (MONIFC); assay: Field assessment on brown rot of fruits on nectarines, harvest and shelf life simulation; settings: curative; for Percent control based on fruit incidence vs untreated, Harvest: 8 DAAB
Description: A fungicidal treatment containing Compound I, applied in a 5% EC formulation and tank mixed with an adjuvant (Trycol, 50% w/w at 0.2% v/v), was sprayed twice during fruit ripening on the plant canopy of nectarines (PRNPN, Calfornia variety) at rates of 50, 100, and 150 grams of active ingredient per hectare (g ai/ha). The applications were done at 8 day intervals with disease inoculation 12 days before the first application (curative). The treatment was part of an experimental trial designed as a randomized complete block with four replications and a plot of approximately 4.3×6.0 m, with compound I being applied using a MISTBLOW, Solo backpack applicator at a water volume of 800 L/ha.
The pathogen was certified to be Monilinia fructicola (MONIFC) by means of an immunoassay followed by a PCR assay on material collected (mummies) from the trial. The brown rot disease at harvest was evaluated on 100 randomly picked fruits per plot, 8 days after application B (8 DAAB), calculating the incidence of fruit with disease and then the percent control using Abbotts. Visually healthy samples of 60 fruits per plot were then placed in alveolus plates and kept for 5 days in cold storage. The samples were then maintained for […] at about 20° C. (shelf life period). Several assessments were made to check the development of disease during the shelf life simulation. In particular, the percentage of rotten fruits were checked at the exit from cold storage (after 5 days of refrigeration, 13 DAAB) followed by 15, 17, 20 and 23 DAAB. Percent of fruit with disease was calculated (incidence) amd then percent control was calculated using Abbotts.

[6] = 60 g ai/ha, Agnique BP420, 240 mL/ha
[7] = 120 g ai/ha, Agnique BP420, 480 mL/ha
[8] = 150 g ai/ha, Agnique BP420, 600 mL/ha
[9] = 180 g ai/ha, Agnique BP420, 720 mL/ha

COc1ccnc(C(=O)N[C@@H](C)C(=O)O[C@@H](C)C(c2ccc(F)cc2)c2ccc(F)cc2)c1OC(C)=O [Compound I, (S)-1,1-bis(4-fluorophenyl)propan-2-yl (3-acetoxy-4-methoxypicolinoyl)-L-alaninate]
RIZPST, percentage of diseased peaches (Incidence) ([1]; 50 g ai/ha): 67.5%
RIZPST, percentage of diseased peaches (Incidence) ([1]; 100 g ai/ha): 22.5%
RIZPST, percentage of diseased peaches (Incidence) ([1]; 150 g ai/ha): 35.0%
Calc Percent Control of BOTRSP 17 DAA4 (Botrytis (BOTRSP); 60 g ai/ha, 120 g ai/ha): 37.9%
Calc Percent Control of BOTRSP 17 DAA4 (Botrytis (BOTRSP); 120 g ai/ha, 240 g ai/ha): 40.0%
Calc Percent Control of BOTRSP 17 DAA4 (Botrytis (BOTRSP); 150 g ai/ha, 300 g ai/ha): 51.6%
Calc Percent Control of BOTRSP 17 DAA4 (Botrytis (BOTRSP); 180 g ai/ha, 360 g ai/ha): 53.5%
Calc Percent Control of CLADSP [2, 6]: 47.3%
Calc Percent Control of CLADSP ([2]; 60 g ai/ha, MSO, 120 g ai/ha): 61.8%
Calc Percent Control of CLADSP [2, 7]: 68.2%
Calc Percent Control of CLADSP ([2]; 120 g ai/ha, MSO, 240 g ai/ha): 97.0%
Calc Percent Control of CLADSP [2, 8]: 69.7%
Calc Percent Control of CLADSP ([2]; 150 g ai/ha, MSO, 300 g ai/ha): 55.1%
Calc Percent Control of CLADSP [2, 9]: 90.9%
Calc Percent Control of CLADSP ([2]; 180 g ai/ha, MSO, 360 g ai/ha): 39.5%
Percent control (AUDPC) from fruit severity assessments ([3]; 50 g ai/ha): B (51-75)
Percent control (AUDPC) from fruit severity assessments ([3]; 100 g ai/ha): A (76-100)
Percent control (AUDPC) from fruit severity assessments ([3]; 150 g ai/ha): A (76-100)
Calculated Percent Control (AUDPC) of STIGCA [4, 6]: 45.2%
Calculated Percent Control (AUDPC) of STIGCA ([4]; 60 g ai/ha, MSO, 120 g ai/ha): 47.9%
Calculated Percent Control (AUDPC) of STIGCA ([4]; 120 g ai/ha, Adsee C80W, 300 g ai/ha): 44.6%
Calculated Percent Control (AUDPC) of STIGCA [4, 7]: 49%
Calculated Percent Control (AUDPC) of STIGCA ([4]; 120 g ai/ha, MSO, 240 g ai/ha): 48.3%
Calculated Percent Control (AUDPC) of STIGCA [4, 8]: 41.1%
Calculated Percent Control (AUDPC) of STIGCA ([4]; 150 g ai/ha, MSO, 300 g ai/ha): 45.1%
Calculated Percent Control (AUDPC) of STIGCA [4, 9]: 30.1%
Calculated Percent Control (AUDPC) of STIGCA ([4]; 180 g ai/ha, MSO, 360 g ai/ha): 49.0%
Percent control based on fruit incidence vs untreated, Shelf Life Simulation ([5]; 50 g ai/ha): C (26-50)
Percent control based on fruit incidence vs untreated, Harvest ([5]; 50 g ai/ha): B (51-75)
Percent control based on fruit incidence vs untreated, Shelf Life Simulation ([5]; 100 g ai/ha): C (26-50)
Percent control based on fruit incidence vs untreated, Harvest ([5]; 100 g ai/ha): B (51-75)
Percent control based on fruit incidence vs untreated, Shelf Life Simulation ([5]; 150 g ai/ha): B (51-75)
Percent control based on fruit incidence vs untreated, Harvest ([5]; 150 g ai/ha): B (51-75)
